Assay [1] has as its system Human immunodeficiency virus 1. The assay can be described thus: Plasma Potency against Mutant HIV-1 K103N. To be noted: Human immunodeficiency virus 1, Plasma. It counts as functional.
Assay [2] concerns Human immunodeficiency virus 1. The assay can be described thus: Potency against Mutant HIV-1 K103N. It counts as functional.
Assay [3] has as its system Human immunodeficiency virus 1. The assay can be described thus: Calculated Potency against Mutant HIV-1 K103N. It counts as functional.
Assay [4] relates to Human immunodeficiency virus 1. The assay can be described thus: Calculated Potency against Mutant HIV-1 sL100I. It counts as functional.
The test system of assay [5] is Human immunodeficiency virus 1. Description: Antiviral activity against HIV-1 K103N mutant virus. It counts as functional.
Assay [6] relates to Human immunodeficiency virus 1. Description: Plasma Potency against Mutant HIV-1 sL100I. It counts as functional. To be noted: Human immunodeficiency virus 1, Plasma.
In assay [7] the test system is Human immunodeficiency virus 1. Description: Potency against Mutant HIV-1 sL100I. It counts as functional.
Assay [8] deals with MT2. Description: Antiviral activity against HIV-2 in MT-2 cells by yield assay. It counts as functional. Conditions: Homo sapiens.
The test system of assay [9] is MT2. Description: Antiviral activity against RF strain of HIV in MT-2 cells by RNA assay. It counts as functional. To be noted: Homo sapiens.
Assay [10] has as its system MT2. The assay can be described thus: Antiviral activity against RF strain of HIV in MT-2 cells by yield assay. It counts as functional. Conditions: Homo sapiens.
Assay [11] relates to MT2. Description: Protein Binding was evaluated by PB shift in MT-2 by RNA assay. It counts as functional. Conditions: Homo sapiens.
Assay [12] relates to Human immunodeficiency virus 1. The assay can be described thus: Calculated Potency against Mutant HIV-1 sV179D/L100I/Y181C. It counts as functional.
For assay [13], the system named is Human immunodeficiency virus 1. The assay can be described thus: Plasma Potency against Mutant HIV-1 sV179D/L100I/Y181C. It counts as functional.
In assay [14] the test system is Human immunodeficiency virus 1. The assay can be described thus: Potency against Mutant HIV-1 sV179D/L100I/Y181C. It counts as functional.
The subject of assay [15] is Human immunodeficiency virus 1. The assay can be described thus: Antiviral activity against Thai 9466, a wild-type clinical strain of HIV in PBMC by P24 assay. It counts as functional.
The subject of assay [16] is Human immunodeficiency virus 1. Description: Antiviral activity against A018C, Zidovudine resistant clinical strain of HIV in PBMC by P24 assay. It counts as functional.
Assay [17] relates to Human immunodeficiency virus 1. Description: Compound was evaluated for the inhibition of wide-type RF strain of HIV-1. It counts as functional.
Assay [18] concerns Human immunodeficiency virus 1. Description: Plasma antiviral activity was evaluated for RF strain of HIV-1. It counts as functional.
For assay [19], the species on record is Homo sapiens. Description: (§1) percentage of the free compound in human serum. It counts as functional.
The species named for assay [20] is Homo sapiens. The assay can be described thus: (§2) percentage of the free compound in tissue culture medium. It counts as functional.
For assay [21], the system named is Human immunodeficiency virus 1. The assay can be described thus: Potency of second-generation NNRTIs against Mutant HIV-1 K103N free drug. It counts as functional.
In assay [22] the test system is Human immunodeficiency virus 1. The assay can be described thus: Potency of second-generation NNRTIs against Mutant HIV-1 K103N plasma; Vlaue ranges from 3400-8100. It counts as functional.
For assay [23], the system named is Human immunodeficiency virus 1. Description: Antiviral activity toward K103N mutant HIV-1 virus as protein binding adjusted (PB adj). It counts as functional.
The test system of assay [24] is Human immunodeficiency virus 1. The assay can be described thus: In vitro antiviral activity against HIV-1 (L100I). It counts as functional.
For assay [25], the system named is Human immunodeficiency virus 1. Description: Potency of second-generation NNRTIs against Mutant HIV-1 sL100I. It counts as functional.
Assay [26] concerns Human immunodeficiency virus 1. The assay can be described thus: Potency of second-generation NNRTIs against Mutant HIV-1 sL100I plasma; Value ranges from 6600-15700. It counts as functional.
Assay [27] has as its system MT2. The assay can be described thus: Antiviral activity of Protein Binding of compound was evaluated for HIV-2 virus expressed MT-2 by yield. It counts as functional, Human immunodeficiency virus 2. Conditions: Homo sapiens.
Assay [28] deals with MT2. Description: Antiviral activity of Protein Binding of compound was evaluated for E virus expressed MT-2 by yield. It counts as functional, Human immunodeficiency virus 1. Conditions: Homo sapiens.
In assay [29] the test system is MT2. Description: Antiviral activity of Protein Binding of compound was evaluated for PB shift virus expressed MT-2 by RNA. To be noted: Homo sapiens. It counts as functional, Human immunodeficiency virus 1.
Assay [30] deals with MT2. The assay can be described thus: Antiviral activity of Protein Binding of compound was evaluated for RF virus expressed MT-2 by RNA. It counts as functional, Human immunodeficiency virus 1. To be noted: Homo sapiens.
The test system of assay [31] is MT2. Description: Antiviral activity of Protein Binding of compound was evaluated for RF virus expressed MT-2 by yield. It counts as functional, Human immunodeficiency virus 1. Conditions: Homo sapiens.
For assay [32], the system named is Human immunodeficiency virus 1. Description: Potency of second-generation NNRTIs against Mutant HIV-1 sV179D/L100I/Y181C. It counts as functional.
For assay [33], the system named is Human immunodeficiency virus 1. The assay can be described thus: Potency of second-generation NNRTIs against Mutant HIV-1 sV179D/L100I/Y181C free drug. It counts as functional.
Assay [34] deals with Human immunodeficiency virus 1. Description: Potency of second-generation NNRTIs against Mutant HIV-1 sV179D/L100I/Y181C plasma; value ranges from 130000-309500. It counts as functional.
Assay [35] has as its system Human immunodeficiency virus 1. Description: Antiviral activity of Protein Binding of compound was evaluated for A 018C virus expressed PBMC by P24. It counts as functional.
Assay [36] deals with Human immunodeficiency virus 1. The assay can be described thus: Antiviral activity of Protein Binding of compound was evaluated for Thai 9466 virus expressed PBMC by P24. It counts as functional.
Assay [37] is described as follows: percentage in tissue culture medium.
Assay [38] concerns Human immunodeficiency virus 1. Description: Compound was evaluated for the inhibition of wilde-type RF strain of HIV-1. It counts as functional.
For assay [39], the species on record is Homo sapiens. The assay can be described thus: percentage in human serum; value ranges from -0.2-0.5. It counts as functional.
In assay [40] the test system is Human immunodeficiency virus 1. The assay can be described thus: Potency of second-generation NNRTIs against Mutant HIV-1 sL100I free drug. It counts as functional.
The subject of assay [41] is Human immunodeficiency virus 1. The assay can be described thus: Potency of second-generation NNRTIs against Mutant HIV-1 K103N. It counts as functional.
The species named for assay [42] is Homo sapiens. The assay is described as §1. It counts as cell-free.
For assay [43], the species on record is Homo sapiens. The assay is described as §2.
Assay [44] concerns MT2. Description: Antiviral activity against E, Zidovudine resistant clinical strain of HIV in MT-2 cells by yield assay. To be noted: Homo sapiens. It counts as functional.
In assay [45] the test system is Human immunodeficiency virus 1. The assay can be described thus: Compound was evaluated for antiviral activity against L100I mutant virus. It counts as functional.
Assay [46] addresses Human immunodeficiency virus type 1 reverse transcriptase (Human immunodeficiency virus 1, UniProt Q72547). The assay can be described thus: Inhibition of HIV-1 reverse transcriptase.
Assay [47] concerns Human immunodeficiency virus 1. The assay can be described thus: The compound was evaluated for the effect of human plasma protein binding on antiviral efficacy. It counts as functional. To be noted: Human immunodeficiency virus 1, Plasma.
The test system of assay [48] is Human immunodeficiency virus 1. The assay can be described thus: Antiviral activity was evaluated for the inhibition of wild-type RF strain of HIV-1 in an in vitro enzyme assay. It counts as functional.
The subject of assay [49] is Human immunodeficiency virus 1. Description: Compound was evaluated for the inhibition of human plasma protein binding adjusted (PB Adj) wild-type RF strain of HIV-1. It counts as functional. Conditions: Human immunodeficiency virus 1, Plasma.

As usually defined, the IC90 is the point of the concentration-response curve where the effect stands at 90%. Regarding `O=C1Nc2ccc(Cl)cc2[C@@](C#CC2CC2)(C(F)(F)F)N1` (stereo in doubt), the IC90 in assay [1] was 210 nM; in assay [2] it was 10 nM; in assay [3], 3.1 nM; in assay [4], 4 nM; in assay [5], 10 nM; in assay [6], 270 nM. Also, the IC90 is 13 nM in [7]; greater than 2800 nM in the assay on MT2 [8]; 2 nM in the assay with MT2 [9]; 2.7 nM in the assay with MT2 [10]; 17 nM in the assay with MT2 [11]; 59 nM in assay [12]. Moreover, the IC90 in assay [13] is 3900 nM; in assay [14], 190 nM; in assay [15], 5 nM; in assay [16], 2.5 nM; in assay [17], 2 nM; in [18], 40 nM. The Free is listed as 1.5% in the assay filed under Homo sapiens [19] and 31% in the assay listed under Homo sapiens [20].

With `O=C1Nc2ccc(Cl)cc2[C@@](C#CC2CC2)(C(F)(F)F)O1` [EFAVIRENZ], the IC90 came to 17 nM in assay [21]; 8100 nM in assay [22]; 1060 nM in assay [23]; 64 nM in [5] (Human immunodeficiency virus 1); 77 nM in [24]; 120 nM in assay [25]. The IC90 was 15700 nM in [26]; greater than 3000 nM with MT2 [27]; 2.8 nM in the assay with MT2 [28]; 17 nM in the assay with MT2 [29]; 1.7 nM in the assay on MT2 [30]; 2.4 nM with MT2 [31]. Further, the concentration for an effect of 90% (IC90) in assay [32] is 2400 nM; in assay [33] it was 650 nM; in assay [34], 310000 nM; in assay [35], 2.8 nM; in assay [36], 8.5 nM; in assay [38], 1.7 nM. For the same compound, the figures for the IC90 in assay [40] and in assay [41] were 33 nM and 64 nM, respectively. Further, the figures for the Free (in assay [37]; in the assay filed under Homo sapiens [39]) were 27% and 0.5%, respectively.

Take `O=C1Nc2ccc(F)c(F)c2[C@@](/C=C/C2CC2)(C(F)(F)F)N1`: the Free was 3% in the assay listed under Homo sapiens [42] and 53% in the assay filed under Homo sapiens [43]. The 90% effect concentration (IC90) is 370 nM in [1]; 21 nM in assay [2]; 11 nM in [3]; 3.1 nM in assay [4]; 100 nM in assay [6]; 5.9 nM in [7]. The IC90 in the assay with MT2 [44] is 2.9 nM; in the assay with MT2 [8], greater than 2800 nM; in the assay with MT2 [9], 2 nM; with MT2 [10], 2.7 nM; in the assay on MT2 [11] it was 3.5 nM; in [12], 130 nM. The 90% effect concentration (IC90) in [13] was 4300 nM; in assay [14], 250 nM; in assay [18], 33 nM.

Take `O=C1Nc2ccc(Cl)cc2[C@@](/C=C/C2CC2)(C(F)(F)F)N1`: the IC90 in assay [1] is 550 nM; in assay [2], 27 nM; in assay [3], 11 nM; in assay [4], 4.3 nM; in assay [6], 220 nM; in assay [7], 11 nM. The concentration for an effect of 90% (IC90) was 1.3 nM with MT2 [44]; greater than 2800 nM in the assay with MT2 [8]; 2.1 nM with MT2 [9]; 1.9 nM with MT2 [10]; 3.7 nM with MT2 [11]; 120 nM in assay [12]. Also, the IC90 in assay [13] was 6000 nM; in [14], 320 nM; in assay [15], 0.9 nM; in assay [18] it was 40 nM. Also, the values for the Free in the assay filed under Homo sapiens [19] and in the assay filed under Homo sapiens [20] were 2% and 39%, respectively.

One may read the IC50 as the concentration that inhibits the measured activity by half. Read a low IC50 as inhibition by little substance. As to `CCC#C[C@]1(C(F)(F)F)NC(=O)Nc2ccc(F)c(F)c21`, the 90% effect concentration (IC90) in assay [45] was 18 nM; in assay [23], 93 nM; in [5] (Human immunodeficiency virus 1) it was 14 nM; in assay [47], 10 nM; in assay [48] it was 1.5 nM. Moreover, the IC50 in [46] turned out to be 74 nM.

In the case of `O=C1Nc2ccc(F)c(F)c2[C@@](C#CC2CC2)(C(F)(F)F)N1` (stereo in doubt), the IC90 in [1] is 140 nM; in assay [2] it was 11 nM; in [3], 4 nM; in assay [4], 3 nM; in [5], 11 nM; in assay [6] it was 110 nM. The IC90 in [7] was 8 nM; in the assay on MT2 [44], 1.7 nM; with MT2 [8], greater than 950 nM; with MT2 [9], 1.3 nM; in the assay on MT2 [10] it was 2.3 nM; in the assay with MT2 [11], 6.9 nM. For the same compound, the IC90 was 41 nM in [12]; 1460 nM in assay [13]; 110 nM in assay [14]; 1.9 nM in assay [15]; 1.6 nM in [16]; 1.3 nM in assay [17]. The compound also yielded an IC90 in [18] of 18 nM.

As to `O=C1Nc2ccc(F)c(Cl)c2[C@@](C#Cc2ccccn2)(C(F)(F)F)N1`, the IC90 in assay [45] was found to be 44 nM; in assay [23] it was 1310 nM; in assay [5] (Human immunodeficiency virus 1), 73 nM; in assay [48], 2.3 nM; in assay [49] it was 41 nM. For the same compound, the concentration for half-maximal inhibition (IC50) in [46] turned out to be 80 nM.

These data come from ChEMBL document CHEMBL1133185, “Inhibition of clinically relevant mutant variants of HIV-1 by quinazolinone non-nucleoside reverse transcriptase inhibitors” (J Med Chem, 2000).
